# Data as given in BindingDB's records for doi:10.1016/s0960-894x(01)00002-6 (Kyushu University, 2001).
# Target: DNA polymerase I (Escherichia coli) (UniProt P00582)
# Assay: Compound was evaluated for its inhibitory activity against Klenow enzyme
# DNA polymerase I (Escherichia coli), sequence (P00582 whole entry, looked up): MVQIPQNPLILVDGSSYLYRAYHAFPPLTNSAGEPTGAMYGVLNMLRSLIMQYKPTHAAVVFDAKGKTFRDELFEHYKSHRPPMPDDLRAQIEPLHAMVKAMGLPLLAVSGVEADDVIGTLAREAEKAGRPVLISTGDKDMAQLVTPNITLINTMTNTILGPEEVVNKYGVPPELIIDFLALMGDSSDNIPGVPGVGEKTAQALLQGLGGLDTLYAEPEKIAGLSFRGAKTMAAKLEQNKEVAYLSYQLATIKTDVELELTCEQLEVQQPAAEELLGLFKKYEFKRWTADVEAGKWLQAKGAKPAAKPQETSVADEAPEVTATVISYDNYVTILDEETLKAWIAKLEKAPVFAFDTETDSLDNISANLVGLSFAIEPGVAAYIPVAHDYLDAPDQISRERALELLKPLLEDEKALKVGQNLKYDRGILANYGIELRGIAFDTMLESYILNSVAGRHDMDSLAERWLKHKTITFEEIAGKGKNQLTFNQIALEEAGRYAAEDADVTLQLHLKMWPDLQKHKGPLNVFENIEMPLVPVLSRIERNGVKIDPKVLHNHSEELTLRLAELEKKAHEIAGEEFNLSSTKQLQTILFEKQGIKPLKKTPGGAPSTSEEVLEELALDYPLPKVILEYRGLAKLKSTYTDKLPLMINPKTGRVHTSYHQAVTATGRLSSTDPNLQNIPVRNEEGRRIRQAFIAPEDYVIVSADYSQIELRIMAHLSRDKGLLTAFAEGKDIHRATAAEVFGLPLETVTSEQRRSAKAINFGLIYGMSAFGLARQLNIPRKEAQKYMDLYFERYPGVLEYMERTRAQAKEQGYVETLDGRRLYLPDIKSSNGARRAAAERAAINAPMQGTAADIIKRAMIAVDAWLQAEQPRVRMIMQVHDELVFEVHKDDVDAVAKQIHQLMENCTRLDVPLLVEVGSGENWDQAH
row,IC50,SMILES
1,70 µM,O=C(Cc1cn(CCn2ccc3cc(Cl)ccc32)c2ccccc12)NCCCCCCCCCCCCOP(=O)(O)Oc1cccc(Cl)c1 [Phosphoric acid 12-(2-{1-[2-(5-chloro-indol-1-yl)-ethyl]-1H-indol-3-yl}-acetylamino)-dodecyl ester 3-chloro-phenyl ester; compound with triethyl-amine]
2,101 µM,O=C(Cc1cn(CCn2ccc3cc(Cl)ccc32)c2ccccc12)NCCCCCCCCCCCCOP(=O)(O)OC1CCCCC1 [Phosphoric acid 12-(2-{1-[2-(5-chloro-indol-1-yl)-ethyl]-1H-indol-3-yl}-acetylamino)-dodecyl ester cyclohexyl ester; compound with triethyl-amine]
3,61 µM,O=C(Cc1cn(CCn2ccc3cc(Cl)ccc32)c2ccccc12)NCCCCCCCCCCCCOP(=O)(O)Oc1ccccc1 [Phosphoric acid 12-(2-{1-[2-(5-chloro-indol-1-yl)-ethyl]-1H-indol-3-yl}-acetylamino)-dodecyl ester phenyl ester; compound with triethyl-amine]
